Source: patent US9061023B2, “Management and treatment of benign prostatic hyperplasia” (CSIR, priority 2007, dated 2015)

What was measured:
[1] = tested on: steroid 5α-reductase enzyme; details: reported in literature (ref 18); cited from earlier work
[2] = biological target: steroid 5α-reductase enzyme (Rattus norvegicus (Rat), UniProt P24008); experiment: In vitro steroid 5α-reductase assay (testosterone EIA); type: biochemical, Wistar rats; details: for IC50: reference compound data
Procedure: In vitro biological assays of the extracts, compounds and mixtures of compounds were undertaken to determine their inhibition of the enzyme 5α-reductase. The efficacy of each isolated compound as well as the crude spray-dried extract was expressed as percentage inhibitory activity and these compounds were tested at different concentrations.
The inhibitory effect of the crude extract, the isolated compounds and a mixture of the compounds on the steroid 5α-reductase was investigated and the results are given in Table 2.
This work was performed at the MDS Pharma Services, Pharmacology Laboratories, Taiwan. The assay was an in vitro evaluation of the ability of an extract or a pure compound to inhibit the steroid 5α-reductase enzyme from metabolizing testosterone into dihydrotestosterone. This is an enzyme-immunoassay (EIA) for quantitative determination of testosterone in human serum or plasma. The significance of this type of inhibition is that it can lead to eradication of benign prostatic hyperplasia (BPH). Two distinct isozymes are found in mice, rats, monkeys and humans: type 1 and II. Each of these isozymes is differentially expressed in tissues and developmental stages. In human, type 1 steroid 5α-reductase is predominant in the sebaceous glands of most regions of skin, including scalp and liver and is responsible for approximately one third of circulating DHT. Inhibitors of steroid 5α-reductase may be of benefit in the treatment of androgenetic alopecia. This is a specific binding assay whereby the biochemical assay results were expressed as percentage inhibition. Finasteride was used as a reference compound in all experiments.
The method employed was adapted from the scientific literature to maximize reliability and reproducibility^25. The steroid 5α-reductase enzyme was isolated from the liver of Wistar rats. The test compound was incubated with 20 μg/mL of steroid 5α-reductase preparation which contains 1 μM testosterone and 50 μM NADPH in DTT buffer, pH 6.5 for 30 minutes at 37° C. The reaction was stopped by addition of 1N HCl and neutralized by 1N NaOH and testosterone was quantified using a testosterone EIA Kit. Compounds were screened at 10 μM.

[3] = DPPH antioxidant screen (radical scavenging capacity)
Procedure: The antioxidant assay was based on the DPPH assay. DPPH is a radical and when a compound with radical scavenging properties reacts with DPPH, the purple colour disappears and a yellow colour is observed. The decolourisation of a purple colour to a yellow colour is measured by a chromameter. The intensity of the yellow colour gives an indication of antioxidant activity. […] The antioxidant activity was expressed as percentage radical scavenging capacity (RSC). […] This evaluation was carried out at the CSIR, Biosciences, Bioprospecting Platform. The 1,1-diphenyl-2-picrylhydrazyl (DPPH) assay was used to investigate the scavenging properties of extracts and pure compounds. […] This is quantified by the decrease of absorbance at wavelength 515 nm in the spectrophotometer. DPPH(purple)+([…](yellow)+(A·)n^26 Since this was a colorimetric test, the appearance of the yellow colour was measured using a chromameter. The final appearance of a more intense yellow colour was used as a good indication of a radical scavenging ability of the extract or compound and this is directly proportional to its antioxidant activity. The antioxidant activity was directly related to the total amount of phenolics and flavonoids present in that particular extract. This method was sensitive enough to indicate and monitor the presence of phenolic-type compounds. […] Spots with good radical scavenging properties turned yellow and the intensity was measured by a chromameter^5. […] The activity of the compound or extract was measured against the reference compound, epigallocatechin gallate.

5α-reductase = details: men with smaller prostates, background; cited from earlier work

Sequence of steroid 5α-reductase enzyme (Rattus norvegicus (Rat), UniProt P24008) (P24008 whole entry): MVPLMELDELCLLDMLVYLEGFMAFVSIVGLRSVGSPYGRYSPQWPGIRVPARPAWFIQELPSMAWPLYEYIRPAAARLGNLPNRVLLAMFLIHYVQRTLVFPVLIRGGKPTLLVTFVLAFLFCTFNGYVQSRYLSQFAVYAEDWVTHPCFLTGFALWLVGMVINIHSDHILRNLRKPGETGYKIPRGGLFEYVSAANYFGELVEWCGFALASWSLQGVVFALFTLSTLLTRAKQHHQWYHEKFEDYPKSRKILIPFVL

In the case of `O=C(O)c1cc(O)c(O)c(O)c1` [Compound (1), 3,4,5-Trihydroxybenzoic acid], the “effect against the steroid 5α-reductase enzyme in words” value [1] is given as “ineffective”.

For `COC(=O)c1cc(O)c(O)c(O)c1` [Compound (2), 3,4,5-Trihydroxybenzoic acid methyl ester], the “effect against the steroid 5α-reductase enzyme in words” value [1] is given as “ineffective”.

For `O=c1c(O)c(-c2ccc(O)c(OC3OC(CO)C(O)C(O)C3O)c2)oc2cc(O)cc(O)c12` (centres unmarked) [Compound (3), 3,5,7-Trihydroxy-2-[4-hydroxy-3-(3,4,5-trihydroxy-6-hydroxymethyltetrahydropyran-2-yloxy)-phenyl]-chromen-4-one], the inhibition at 1 µM ([2]; test concentration 1 μM) was -9%, the “% RSC” value ([3]; 6.25 ppm) was 41% and the “% RSC” value ([3]; 12.5 ppm) was 77%. For the same compound, the “% RSC” value ([3]; 25 ppm) was 95%, the “% RSC” value ([3]; 50 ppm) was 95% and the “% RSC” value ([3]; 100 ppm) was 95%.

`O=C(OC1Cc2c(O)cc(O)cc2OC1c1cc(O)cc(O)c1)c1cc(O)c(O)c(O)c1` (centres unmarked) [Compound (4), 3,4,5-Trihydroxybenzoic acid 2-(3,5-dihydroxy-phenyl)-5,7-dihydroxy-chroman-3-yl ester] showed an inhibition at 1 µM ([2]; test concentration 1 μM) of -2%.

For `O=C1c2c(O)cc(O)cc2O[C@H](c2ccc(O)c(O[C@@H]3O[C@H](CO)[C@@H](O)[C@H](O)[C@H]3O)c2)[C@H]1O` [Compound (5), (2R,3R)-,2-[3-(β-D-glucopyranosyloxy)-4-hydroxy-phenyl]-2,3-dihydro-3,5,7-trihydroxy-,4H-1-benzo-pyran-4-one], the “% inhibition” value ([2]; test concentration 1 μM) was 3%, the “% RSC” value ([3]; 6.25 ppm) was 10% and the “% RSC” value ([3]; 12.5 ppm) was 8%. The “% RSC” value ([3]; 25 ppm) was 10%, the “% RSC” value ([3]; 50 ppm) was 13% and the “% RSC” value ([3]; 100 ppm) was 21%.

In the case of `O=C(O[C@@H]1Cc2c(O)cc(O)cc2O[C@@H]1c1cc(O)c(O)c(O)c1)c1cc(O)c(O)c(O)c1` [Epigallocatechin gallate, reference compound], the “% RSC” value ([3]; 0.01 ppm) is reported as 8%, the “% RSC” value ([3]; 0.1 ppm) is reported as 8% and the “% RSC” value ([3]; 1 ppm) is reported as 61%. For the same compound, the “% RSC” value ([3]; 10 ppm) was 95% and the “% RSC” value ([3]; 100 ppm) was 95%.

In the case of `CC(C)(C)NC(=O)[C@H]1CC[C@H]2[C@@H]3CC[C@H]4NC(=O)C=C[C@]4(C)[C@H]3CC[C@]12C` [Finasteride], the IC50 [2] is given as 0.025 µM, the inhibition at 0.025 µM ([2]; test concentration 0.025 μM) is given as 50% and the “reduction in erection rate” value (5α-reductase) is given as “up to 8%”. The “reduction in semen volume” value (5α-reductase) was 4% and the “reduction in sex drive” value (5α-reductase) was 6%.

For `CCCCC/C=C\C/C=C\C/C=C\CCCCC(=O)O` [γ-Linolenic acid, reference compound], the IC50 [2] was 14 µM.
